Assay results from patent US20230212549A1, “COMPOUNDS COMPRISING A […] LIGAND AND USE THEREOF” (priority 2021, published 2023).

Experiments:
Type in all cases: biochemical
[1] = biological target: T1, proteases (Homo sapiens, UniProt Q6V1X1); details: DPP8; Reference at 200 μM
T1 construct: BPS Biosciences (ran the screen)

[2] = biological target: proteases (Homo sapiens, UniProt Q9UHL4); details: DPP7; Reference at 200 μM
[3] = biological target: T2, proteases (Homo sapiens, UniProt Q12884); details: FAP; Reference at 100 nM
T2 construct: BPS Biosciences (ran the screen)

[4] = biological target: T3, proteases (Homo sapiens, UniProt P03956); details: Matrix metalloproteasel; Reference at 1 μM
T3 construct: BPS Biosciences (ran the screen)

[5] = biological target: T4, proteases (Homo sapiens, UniProt P08253); details: Matrix metalloprotease 2; Reference at 100 nM
T4 construct: BPS Biosciences (ran the screen)

[6] = biological target: T5, proteases (Homo sapiens, UniProt P14780, Q279R); details: 0.1 µM
T5 construct: BPS Biosciences (ran the screen)

[7] = biological target: T6, proteases (Homo sapiens, UniProt O75604); details: Ubiquitin carboxyl-terminal hydrolase 2; Reference at 1 μM
T6 construct: BPS Biosciences (ran the screen)

[8] = biological target: T7, proteases (Homo sapiens, UniProt P09936); details: Ubiquitin carboxy-terminal hydrolase L1; Reference at 100 nM
T7 construct: BPS Biosciences (ran the screen)

[9] = biological target: T8, proteases (Homo sapiens, UniProt P15374); details: Ubiquitin carboxy-terminal hydrolase L3; Reference at 10 nM
T8 construct: BPS Biosciences (ran the screen)

[10] = biological target: T9, proteases (Homo sapiens, UniProt P21580); details: A20; Reference at 1 μM
T9 construct: BPS Biosciences (ran the screen)

[11] = biological target: T10, proteases (Homo sapiens, UniProt P40818); details: Ubiquitin carboxyl-terminal hydrolase 8; Reference at 1 μM
T10 construct: BPS Biosciences (ran the screen)

[12] = biological target: T11, proteases (Homo sapiens, UniProt P45974); details: Ubiquitin carboxyl-terminal hydrolase 5; Reference at 1 μM
T11 construct: BPS Biosciences (ran the screen)

[13] = biological target: T12, proteases (Homo sapiens, UniProt P54252); details: Ataxin3; Reference at 10 μM
T12 construct: BPS Biosciences (ran the screen)

[14] = biological target: T13, proteases (Homo sapiens, UniProt P54578); details: Ubiquitin carboxyl-terminal hydrolase 14; Reference at 100 nM
T13 construct: BPS Biosciences (ran the screen)

[15] = biological target: T14, proteases (Homo sapiens, UniProt Q14694); details: Ubiquitin carboxyl-terminal hydrolase 10; Reference at 1 μM
T14 construct: BPS Biosciences (ran the screen)

[16] = biological target: T15, proteases (Homo sapiens, UniProt Q8N6M0); details: Deubiquitinase OTUD6B; Reference at 1 μM
T15 construct: BPS Biosciences (ran the screen)

[17] = biological target: T16, proteases (Homo sapiens, UniProt Q93009); details: Ubiquitin carboxyl-terminal hydrolase 7; Reference at 1 μM
T16 construct: BPS Biosciences (ran the screen)

[18] = biological target: T17, proteases (Hepatitis C virus genotype 1a, UniProt P27958, D1194V); details: serine protease NS3 (a.a. 3-181) from Hepatitis C virus genotype 1a (mutant D168V); Reference at 100 nM
T17 construct: BPS Biosciences (ran the screen)

[19] = biological target: T18, proteases (Hepatitis C virus genotype 1b, UniProt P26663); details: serine protease NS3 (a.a. 3-181) from Hepatitis C virus genotype 1b; Reference at 100 nM
T18 construct: BPS Biosciences (ran the screen)

[20] = biological target: T19, proteases (Hepatitis C virus genotype 1b, UniProt P26663, D1194V); details: serine protease NS3 (a.a. 3-181) from Hepatitis C virus genotype 1b (mutant D168V); Reference at 100 nM
T19 construct: BPS Biosciences (ran the screen)

[21] = biological target: T20, proteases (Hepatitis C virus genotype 1b, UniProt P26663, R1181Q); details: serine protease NS3 (a.a. 3-181) from Hepatitis C virus genotype 1b (mutant R155Q); Reference at 1 μM
T20 construct: BPS Biosciences (ran the screen)

[22] = biological target: T21, proteases (Hepatitis C virus genotype 2a, UniProt Q99IB8); details: serine protease NS3 (a.a. 3-181) from Hepatitis C virus genotype 2a; Reference at 100 nM
T21 construct: BPS Biosciences (ran the screen)

N#Cc1ccc(NCCNCC(=O)N2N=CCC2C#N)nc1 (stereo not shown) [KR62436]
Percentage inhibition (%) [1]: 96% | Percentage inhibition (%) [2]: 83%

N#C[C@@H]1CC(F)(F)CN1C(=O)CNC(=O)c1ccnc2ccccc12 [SP-13786]
Percentage inhibition (%) [3]: 100%

COc1ccc(S(=O)(=O)N(CC(=O)NO)CC(C)C)cc1 [NNGH]
Percentage inhibition (%) [4]: 87% | Percentage inhibition (%) [5]: 95% | Percentage inhibition (%) [6]: 92%

Ub-Aldehyde
Percentage inhibition (%) [7]: 91% | Percentage inhibition (%) [8]: 92% | Percentage inhibition (%) [9]: 95% | Percentage inhibition (%) [10]: 99% | Percentage inhibition (%) [11]: 73% | Percentage inhibition (%) [12]: 84% | Percentage inhibition (%) [13]: 77% | Percentage inhibition (%) [14]: 96% | Percentage inhibition (%) [15]: 82% | Percentage inhibition (%) [16]: 97% | Percentage inhibition (%) [17]: 95%

Denoprevir
Percentage inhibition (%) [18]: 94% | Percentage inhibition (%) [19]: 100% | Percentage inhibition (%) [20]: 99% | Percentage inhibition (%) [21]: 99% | Percentage inhibition (%) [22]: 98%
